Source: a melting point compilation (Tetko et al.; mined from patent text by program, amines drawn as free bases though some values may be those of a salt)

SMILES	melting point [°C]
CCOP(=O)(OCC)c1ccc2cccc(-c3cccc4ccccc34)c2n1	128
O=C(c1ccccc1)N1CCN(c2ccccc2)CCn2c1nc1ccccc12	217 to 220
CCCn1c(COCC)nc2c(N)nc3cc(OC4CCN(C(=O)OC(C)(C)C)CC4)ccc3c21	194 to 195
Cc1cc(-c2c(C)nc3ccc(N4CCNC(C)(C)C4)nn23)ccn1	110 to 112
CCOC(=O)/C=C/c1c(-c2ccccc2)c2c3ccccc3ccn2c1C(C)C	145 to 146
CC(C)C(=O)Nc1ccc2ncn3c(=O)c(C(=O)O)cnc3c2c1	312 to 314
CN(C)c1ccc(-c2nnc(N3CCC(O)CC3)nc2-c2ccc(N(C)C)cc2)cc1	186 to 188
O=C1CC(Cl)=C(Cl)c2nc3cc(Cl)ccc3c(NCc3ccccc3)c21	141 to 143
CC(CCC(=O)N(C)C#N)C(=O)N(C)C#N (stereo not drawn)	59.2 to 60.9
COc1cc(Nc2c(C#N)cnc3cc(/C=C/CCO)c(OC)cc23)c(Cl)cc1Cl	186 to 188
COC(=O)c1ccc(OCCNC(=O)c2ccc(F)cc2)cc1	105 to 107
COc1nc(C)cnc1NS(=O)(=O)c1cccnc1-c1ccc(NC(C)=O)cc1	208 to 209
Nc1c(Cl)cc(C(O)CNCCCCCC(=O)OCCc2ccsc2)cc1Cl (stereo not drawn)	71 to 73
CN(C)C=C(C#N)S(=O)(=O)c1ccccc1	108 to 110
Clc1nn2c(-c3ccccc3)nnc2c2ccccc12	172 to 174
COC(=O)c1cccc2c(SC(F)(F)F)c(OC)ccc12	93 to 94
COC(=O)CCc1cc([N+](=O)[O-])c(O)c(C(C)(C)C)c1	41 to 42
Brc1cccc(-c2cn([C@H]3CN4CCC3CC4)nn2)c1	188
Cc1cc(C)c(-c2c(O)c(Cl)c(-c3ccc(Cl)cc3)oc2=O)c(C)c1	229 to 231
CCNC(=O)c1c([Si](C)(C)C)sc2ccccc12	121 to 124
CCOC(=O)c1cnc2c(NC(=O)c3c(Cl)cccc3Cl)cccc2c1CC(=O)O	149 to 159
CCSc1cc2c(cc1F)C(=O)C(=O)N2	215
CC(C)(C)OC(=O)[C@H]1C[C@H](C(=O)Nc2ccccc2)[C@@H](c2ccccc2F)N1C(=O)CNC(=O)Nc1cccc(C(=O)O)c1 (racemic)	170
CCn1c(N)c(C(N)=O)c(=O)c2ccc(-c3ccncc3)cc21	> 300
c1ccc(CSc2ccccc2C2=NOCCO2)cc1	73 to 77
CCOC(=O)C1Cc2cc3c(CC)noc3c(Cl)c2O1 (stereo not drawn)	95 to 96

SMILES	melting point [°C]
CC(=O)c1nn(CCOS(C)(=O)=O)cc1C	108 to 109
O=C(NCc1ccc(Cl)cc1)c1noc2ccc(C#CCO)cc2c1=O	117 to 120
CN(C)Cc1nnc(CN(C)C)n1-c1ccc(Cl)cc1C(=O)c1ccccc1	148 to 152
N#Cc1ccc(Oc2ccc(C#N)cc2C#N)cc1	222 to 223
O=C1CCC(c2ccc(Cl)c(C(F)(F)F)c2)=NN1	195 to 198
NC(=O)NN=C1CCCCC1n1nc(-c2c(-c3ccccc3)nn3ccccc23)ccc1=O (stereo not drawn)	227 to 229
O=S(=O)(Nc1ccc(-c2n[nH]c3c2Cc2ccccc2-3)cc1)c1ccccc1	286 to 288
COCCOc1ccc(/C=C/C(=O)O)c(OCC2CCCCC2)c1	112
COc1cc(-c2nnn[nH]2)ccc1Cc1cn(C)c2ccc(NC(=O)CC3CCCC3)cc12	242 to 243
CC(C)(C)OC(=O)NC(C(=O)Oc1ccc(/C=c2\[nH]c(=O)/c(=C/c3ccccc3)[nH]c2=O)nc1)c1ccccc1 (stereo not drawn)	198
N#Cc1cnc(N)nc1-c1ccc(Cl)cc1C(=O)c1ccccc1F	153 to 157
COc1cc2c3c(n(C)c(=O)c2cc1OC)-c1cc2c(cc1C3=CCCCBr)OCO2	197 to 199
COCc1cc(Cl)n2nc(SC)c(S(=O)(=O)c3ccccc3)c2n1	194 to 197
CC(C)(C)C(=O)c1ccc(CSCc2ccc(C(=O)C(C)(C)C)cc2)cc1	64 to 65
COc1ccc(OC)c(-c2nc3ncccc3[nH]2)c1	235
COc1nc(C)nc(NC(=O)NS(=O)(=O)c2ccccc2OC(F)(F)C(F)(F)F)n1	157 to 159
Cc1cccc(-c2nccc(-c3ccccc3C)n2)n1	119
COc1nc(-c2ccc(C(=O)O)cc2)cc2cccnc12	> 300
CCCC1=C(C#N)C(c2cccc3oc(C)nc23)c2c[nH]nc2N1 (stereo not drawn)	208
Cc1ccc(Cc2cnc(NCCNc3ncc(Cl)cc3C)[nH]c2=O)cn1	112 to 115
CCOC(=O)C=CC=Cc1ccc(OC)c(C)c1C	92 to 95
O=C(CC1CCCCC1=O)c1ccccc1 (stereo not drawn)	44 to 45
O=C(NCc1ccccc1)c1ccc2cnccc2n1	113 to 115
N#Cc1cccc(-c2ccc(OC[C@@H](O)CCc3cccnc3)cc2)c1	74 to 75
CC(C)CCCC(C)C1CCC2C3CC4(OCCO4)C4CCCC(O)C4(C)C3CCC12C (stereo not drawn)	96 to 98
CN(C)CCNc1c2nc3ccccc3c-2n(C)c2ccccc12	162 to 164

SMILES	melting point [°C]
CC1CN(c2ccncc2Oc2ccccc2)CCN1 (stereo not drawn)	55 to 57
CC1(C)CCC(C(=O)O)c2ccccc21 (stereo not drawn)	80 to 81
CC(CBr)(CBr)C(=O)O	60 to 62
CCCn1c(COC)nc2c(N)nc3ccc(OCC4CCCN(C)C4)cc3c21 (stereo not drawn)	194 to 196
CCCCOc1cc(C)c(O)cc1C	43 to 45
COc1ccc2c(-c3ccccc3)c(C(=O)c3ccccc3)sc2c1	94 to 95.5
COC(=O)C1=Cc2cccc(OCc3ccccc3)c2CC1	64 to 67
CC(C)c1cc(O)c2c(c1)OC(C)(C)C1=C2CN(CC(=O)NC(N)=O)CC1	164 to 166
Cc1ccc(-c2noc3c(Cl)c(OCC(=O)O)ccc23)o1	217 to 219
CCOC(=O)NNC(=O)NCCC(=O)OC	105 to 107
N#Cc1cc(C(F)(F)F)cc(Cl)c1F	150 to 152
CC1Sc2c(C(=O)O)c(=O)c3cc(F)c(N4CCN(C)CC4)c(F)c3n21 (stereo not drawn)	238
O=C(CCCN1CCOCC1)c1ccc2c(c1)Cc1cc(C(=O)CCCN3CCOCC3)ccc1-2	166 to 168
Cc1ccc(S(=O)(=O)NCCC(C(=O)NO)C2(CC(C)C)CCN(CCc3ccccc3)C2=O)cc1 (stereo not drawn)	166 to 167
COc1cc(C(O)C(CO)[N+](=O)[O-])cc(OC)c1OC (stereo not drawn)	155 to 159
Nc1ccc2c(c1)C(=O)C2	92 to 93
COC(=O)c1cccc(Cn2c(=O)c(=O)[nH]c3cc([N+](=O)[O-])ccc32)c1	265 to 267
CC(C(=O)O)C(=O)c1ncc(Cl)cc1F (stereo not drawn)	101 to 102
COc1cc(C(=O)O)cc(OC)c1CC(C)C	160 to 162
CC(C)CSCc1c(-c2ccc(S(C)(=O)=O)cc2)cnn(-c2ccc(F)cc2)c1=O	45 to 60
Cc1ccc(-c2[nH]c(-c3ccccc3[N+](=O)[O-])nc2C(=O)Nc2nccs2)cc1	203 to 204
CC1(C)CCS(=O)(=O)N1	72
COc1ccc(-c2cccc3ccccc23)cc1OC1CCCC1	123 to 125
CCOC(=O)CC(=O)NNC(=O)c1cc2cccc(N(C)S(=O)(=O)c3cccs3)c2[nH]1	119 to 121
OC12CC3CC(C1)CC(O)(C3)C2	169
O=c1c(-c2ccccc2)cc(C2=NCCO2)c2n1CCc1ccsc1-2	211 to 212

SMILES	melting point [°C]
CC(C#CC1CCC(Oc2ccc(F)cc2)C1)N(O)C(N)=O (stereo not drawn)	95.6 to 96.7
CC(=O)Oc1ccc(Cl)c2c(=O)c3ccccc3sc12	141 to 142
Cc1ccc(S(=O)(=O)N(Cc2cc(C(C)(C)C)c(O)c(C(C)(C)C)c2)c2cccnc2Cl)cc1	117 to 119
N[C@@H](C/C(=C\C1CCCCC1)C(=O)O)C(=O)O	205
CCOC(=O)c1ccc(Cc2ccc(O)cc2)cn1	153 to 156
CCOC(=O)CCNC(=O)c1oc2cc(-c3ccc(Cn4c(C)nc5ccccc54)cc3)ccc2c1C	196 to 197
CCOC(=O)COc1cc(-c2ccccc2)nc2ccccc12	96
CCc1nn2ccccc2c1N(CCF)C(=O)COC	66.9 to 70.6
O=c1[nH]c2cc3cc(N4CCCC4)ccc3nc2[nH]1	> 300
COc1nc(C2CC2)nc(OC(C)C)c1C=O	46 to 47
O=C(O)c1ccc([N+](=O)[O-])c(S(=O)(=O)CCO)c1	176 to 177
CC(C)(C)C(=O)OC1CC(=O)C2(C)CCC3C(CCC4=CC(=O)CCC43C)C12 (stereo not drawn)	148 to 150
COc1cccc(-c2cn3c(ccc4ccccc43)n2)c1	129 to 131
CCn1c2c(c3ccccc31)Cc1c(CO)c(CO)c(C)n1C2	216 to 217
Cc1cccc(SCc2ccc3nc(NC4CCN(C)CC4)n(Cc4nc(C)ccc4O)c3c2)c1	202
CCc1noc(-c2ccc(OCCC3CN(c4ccc(Cl)nn4)CCO3)cc2)n1 (stereo not drawn)	164
Cc1sc(C(=O)OCc2ccccc2)cc1[N+](=O)[O-]	57 to 58
O=c1c2c(CC3CCOCC3)n[nH]c2c2cccnc2n1-c1ccccc1	228 to 234
CC(C)N(O)C(=O)Nc1ccc(S(C)(=O)=O)cc1	163 to 164
CCN(CC)C(=O)c1ccc(C(=O)N2CCN(c3ncccc3NC(C)C)CC2)nc1	100 to 102
CCOC(=O)Cc1sc(SCc2cc(O)nc(C)n2)nc1C	131 to 132
CCOC(=O)N1CCC(Nc2nc3ccccc3n2Cc2ccc(CO)o2)CC1	138 to 140
CC(C)NC(=O)CCCCc1cc(O)c(O)c([N+](=O)[O-])c1	113 to 115
CC(C)(c1cccc(C(F)(F)F)c1)N1C[C@H]([C@H](Cc2ccccc2)NC(=O)c2cc(C(=O)O)c3n2CCN(S(C)(=O)=O)C3)OC1=O	147
c1ccc(C(CCN2CC3=C(C2)c2cccc4cccc3c24)(c2ccccc2)c2ccccc2)cc1	159 to 168
